Test results taken from article PMC6368337, “GluClR-mediated inhibitory postsynaptic currents reveal targets for ivermectin and potential mechanisms of ivermectin resistance” (PLoS Pathogens, 2019).

Key:
Lipophilicity (logP) = format: physicochemical
α and αβ (1:1) GluClRs = assay: IVM-induced tonic current in heteroculture, α and αβ data pooled; format: cell-based, H. contortus; conditions: continuous 5 nM IVM
Protocol: After validating the heterocultures as a reliable preparation for investigating IPSCs mediated by GluClRs, we made synaptic recordings while continuously applying IVM (5 nM) to cells similarly transfected with α and αβ GluClRs. […] Firstly, there was a steady downward deflection in baseline current over the course of the recording that was not different between cells expressing α (Fig 5A) and αβ (1:1, Fig 5B) GluClRs. […] Changes to the kinetic properties of IPSCs were also observed upon IVM application (Fig 5C–5G). These were analysed 15 minutes after the commencement of the IVM application to ensure that the effects had equilibrated. […] The decay time constant for α GluClRs slowed from 40 ± 2 ms to 100 ± 3 ms (n = 6) and for αβ GluClRs from 17 ± 2 ms to 72 ± 4 ms (n = 6, Fig 5E). The increase in activation times were from 4.6 ± 0.7 ms to 19 ± 1 ms for α GluClRs and from 3.0 ± 0.3 ms to 10 ± 1 ms for the αβ heteromers (Fig 5F). […] A comparison of the magnitude changes of IPSC parameters was also made between the two receptor isoforms.
cDNAs encoding the α (avr-14b) (pcDNA 3.1+) or β (pUNIV) GluClR subunits of H. contortus were nuclear injected into oocytes (NASCO, WI USA) or transfected into HEK293AD cells (CellBank Australia) using a calcium phosphate-DNA co-precipitate method. […]

β GluClRs = β GluClRs (Haemonchus contortus, UniProt P91730); assay: Single channel recording, outside-out patches, β GluClRs; format: cell-based, H. contortus; conditions: 2 μM glutamate plus 5 nM IVM
Chain of β GluClRs (P91730 19-432): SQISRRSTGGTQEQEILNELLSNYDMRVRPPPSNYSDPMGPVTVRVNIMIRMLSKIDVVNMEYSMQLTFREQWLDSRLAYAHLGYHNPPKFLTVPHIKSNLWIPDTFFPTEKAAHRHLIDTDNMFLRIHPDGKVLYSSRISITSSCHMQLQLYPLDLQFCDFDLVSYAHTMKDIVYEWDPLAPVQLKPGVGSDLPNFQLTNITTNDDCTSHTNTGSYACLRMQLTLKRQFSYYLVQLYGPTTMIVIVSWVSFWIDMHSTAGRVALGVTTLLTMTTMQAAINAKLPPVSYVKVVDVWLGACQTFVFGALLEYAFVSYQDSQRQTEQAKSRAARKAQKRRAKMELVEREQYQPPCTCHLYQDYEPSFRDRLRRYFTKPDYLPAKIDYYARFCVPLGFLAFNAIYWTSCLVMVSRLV
Description: To explore whether a similar mechanism applies to β-containing GluClRs, we recorded single receptor currents in excised patches from cells transfected with either the α and β subunits (1:1) or the β subunit alone. […] By contrast, patches from cells transfected with the β subunit alone invariably opened to an amplitude of 0.4 pA (Fig 6C). Amplitude histograms confirmed two amplitude levels for αβ GluClRs and a single amplitude for the β GluClRs (Fig 6D). […] We infer that the αβ GluClRs that open to 0.7 pA likely contain a greater proportion of β subunits. This is consistent with β GluClRs having the smallest amplitude and α GluClRs having the greatest amplitude (1.8 pA) under similar recording conditions. The calculated conductance values for the corresponding amplitudes for αβ GluClRs was 15.2 pS and 8.9 pS and for the β GluClRs was 5.1 pS.
Single-channel currents were recorded from outside-out excised patches at a clamped potential of −70 mV. The single channel conductance was calculated by dividing the mean current by the net driving force at a clamped potential of ‐70 mV, after accounting for reversal and liquid junction potentials. Excised patches were continuously perfused via a gravity-fed double-barrelled glass tube, which contained extracellular bath solution containing (in mM), 140 NaCl, 5 KCl, 1 MgCl2, 2 CaCl2, 10 HEPES, and 10 D-glucose and titrated to pH 7.4. Glutamate and IVM were dissolved in this extracellular solution. Recording electrodes were pulled from borosilicate glass (G150F-3; Warner Instruments), coated with a silicone elastomer (Sylgard-184; Dow Corning) and heat-polished to a final tip resistance of 4–15 MΩ when filled with an intracellular solution containing (in mM) 145 CsCl, 2 MgCl2, 2 CaCl2, 10 HEPES, and 5 EGTA, pH 7.4. […] A 10 mM stock of IVM (Sigma-Aldrich) was dissolved in 100% DMSO and kept frozen at ‐20°C. Fresh working stocks of IVM at 5 nM were prepared by dissolving the appropriate quantity directly in extracellular solution. 100% DMSO when dissolved in extracellular solution alone at the same concentration as was present in working solutions containing 5 nM IVM had no effect on patches excised from cells transfected with GluClRs or from untransfected cells.
Currents were recorded using an Axopatch 200B amplifier (Molecular Devices), filtered at 5 kHz and digitized at 20 kHz using Clampex (pClamp 10 suite, Molecular Devices) via a Digidata 1440A digitizer.
Group data were analysed in SigmaPlot 13.0 using one-way ANOVAs, where p < 0.05 was taken as the significance threshold and expressed as mean ± SEM. Tests for normally distributed data are built into the SigmaPlot software. Confocal images were captured and analysed with Zen 2012 SP2 (Zeiss) software. Oocyte concentration-response data were fit to a Hill equation to obtain an EC50 and Hill co-efficient for each oocyte recording. These parameters were then averaged across multiple oocyte experiments of the same type. Single channel recordings were analysed in QuB software. […] Patches yielded between 30–250 individual active periods. […] The selected critical times eliminated periods of receptor desensitisation while retaining singe receptor active periods. Mean active period duration and intra-activation open probability was estimated from each patch. Group means were obtained by averaging across multiple patches for each recording condition.

[1] = tested on: homomeric α (avr-14b) GluClRs; conditions: cited from earlier work

CC[C@H](C)[C@H]1O[C@]2(CC[C@@H]1C)C[C@@H]1C[C@@H](C/C=C(\C)[C@@H](O[C@H]3C[C@H](OC)[C@@H](O[C@H]4C[C@H](OC)[C@@H](O)[C@H](C)O4)[C@H](C)O3)[C@@H](C)/C=C/C=C3\CO[C@@H]4[C@H](O)C(C)=C[C@@H](C(=O)O1)[C@]34O)O2 [IVM, Ivermectin]
logP (Lipophilicity (logP)): 5.4
tonic current fitted time constant (α and αβ (1:1) GluClRs): 483 ± 72 s
tonic current mean amplitude (α and αβ (1:1) GluClRs): 304 ± 54 pA
intra-activation open probability (PO) (β GluClRs): 0.62 ± 0.04
mean active period duration (β GluClRs): 120 ± 21 ms
time over which single receptor active periods increase in duration after exposure [1]: 1 to 2 min
